Assay results: US11103528B1, “Slow release calcium composition” (Government of the United States, as represented by the …, priority 2019, dated 2021)

Test system: retinal pigmented epithelium (RPE) wild-type (WT) cells
Assay: Effect of calcium and red-light irradiation on NO levels (DAF-FM DA integrated fluorescence)
Assay type: cell-based
Description: In this experiment, the influence of Ca^2+ on nitric oxide (NO) levels was determined by measuring the integrated fluorescence of the reaction product of NO with diaminofluorescein-FM diacetate (DAF-FM DA, C25H18F2N2O7).
Procedurally, the experiment was carried out using a 96 well plate, with either ionic calcium (Ca^2+) or encapsulated calcium (CaCD) added to each of the wells. The concentration of calcium in the wells as CaCl2 was 1.67 mM, and the concentration as CaCD was 2.79 mM stock (or 5 μM final concentration), in a total volume of 300 μL in each well. The number of RPE-WT cells was approximately 175,000 per well. Two reference samples for CaCl2 and CaCD were used to compare relative changes upon exposure to red-light in the presence of Ca^2+. The RPE cells were incubated with DAF-FM DA for 30 minutes at 37 degrees C. and the fluorescence was immediately measured (as time-point 0 minutes) to obtain a ‘background’ baseline.

Compound: [Ca+2].[Cl-].[Cl-] [Ca, CaCl2]
- Intensity (integrated fluorescence of DAF-FM DA, NO level) (WT in PBS + Ca (no red light), Time 9.09 (minutes)): 85.40
- Intensity (integrated fluorescence of DAF-FM DA, NO level) (WT in PBS + Ca (no red light), Time 28.63 (minutes)): 92.76
- Intensity (integrated fluorescence of DAF-FM DA, NO level) (WT in PBS + Ca (no red light), Time 75.14 (minutes)): 100.20
- Intensity (integrated fluorescence of DAF-FM DA, NO level) (WT in PBS + Ca (no red light), Time 307.24 (minutes)): 191.01
- Intensity (integrated fluorescence of DAF-FM DA, NO level) (WT in PBS + Ca (no red light), Time 319.44 (minutes)): 198.35
- Intensity (integrated fluorescence of DAF-FM DA, NO level) (WT in PBS + Ca (no red light), Time 431.58 (minutes)): 271.80
- Intensity (integrated fluorescence of DAF-FM DA, NO level) (WT in PBS + Ca (no red light), Time 460.95 (minutes)): 276.75
- Intensity (integrated fluorescence of DAF-FM DA, NO level) (WT in PBS + Ca (no red light), Time 770.49 (minutes)): 489.70
- Intensity (integrated fluorescence of DAF-FM DA, NO level) (WT in PBS + Ca (no red light), Time 799.74 (minutes)): 509.28
- Intensity (integrated fluorescence of DAF-FM DA, NO level) (WT in PBS + Ca + RL15, Time 9.09 (minutes)): 85.40
- Intensity (integrated fluorescence of DAF-FM DA, NO level) (WT in PBS + Ca + RL15, Time 28.61 (minutes)): 95.20
- Intensity (integrated fluorescence of DAF-FM DA, NO level) (WT in PBS + Ca + RL15, Time 70.2 (minutes)): 105.06
- Intensity (integrated fluorescence of DAF-FM DA, NO level) (WT in PBS + Ca + RL15, Time 307.22 (minutes)): 193.44
- Intensity (integrated fluorescence of DAF-FM DA, NO level) (WT in PBS + Ca + RL15, Time 316.95 (minutes)): 203.22
- Intensity (integrated fluorescence of DAF-FM DA, NO level) (WT in PBS + Ca + RL15, Time 428.93 (minutes)): 296.18
- Intensity (integrated fluorescence of DAF-FM DA, NO level) (WT in PBS + Ca + RL15, Time 460.74 (minutes)): 303.57
- Intensity (integrated fluorescence of DAF-FM DA, NO level) (WT in PBS + Ca + RL15, Time 765.45 (minutes)): 506.76
- Intensity (integrated fluorescence of DAF-FM DA, NO level) (WT in PBS + Ca + RL15, Time 799.54 (minutes)): 533.67
- Intensity (integrated fluorescence of DAF-FM DA, NO level) (WT in PBS + Ca + RL30, Time 11.6 (minutes)): 68.33
- Intensity (integrated fluorescence of DAF-FM DA, NO level) (WT in PBS + Ca + RL30, Time 33.6 (minutes)): 75.70
- Intensity (integrated fluorescence of DAF-FM DA, NO level) (WT in PBS + Ca + RL30, Time 72.9 (minutes)): 73.36
- Intensity (integrated fluorescence of DAF-FM DA, NO level) (WT in PBS + Ca + RL30, Time 308 (minutes)): 83.69
- Intensity (integrated fluorescence of DAF-FM DA, NO level) (WT in PBS + Ca + RL30, Time 320.3 (minutes)): 86.16
- Intensity (integrated fluorescence of DAF-FM DA, NO level) (WT in PBS + Ca + RL30, Time 427 (minutes)): 237.64
- Intensity (integrated fluorescence of DAF-FM DA, NO level) (WT in PBS + Ca + RL30, Time 466 (minutes)): 240.17
- Intensity (integrated fluorescence of DAF-FM DA, NO level) (WT in PBS + Ca + RL30, Time 770.9 (minutes)): 462.87
- Intensity (integrated fluorescence of DAF-FM DA, NO level) (WT in PBS + Ca + RL30, Time 799.9 (minutes)): 494.65
- Intensity (integrated fluorescence of DAF-FM DA, NO level) (WT in PBS + Ca + RL60, Time 11.52 (minutes)): 87.84
- Intensity (integrated fluorescence of DAF-FM DA, NO level) (WT in PBS + Ca + RL60, Time 33.54 (minutes)): 92.78
- Intensity (integrated fluorescence of DAF-FM DA, NO level) (WT in PBS + Ca + RL60, Time 72.65 (minutes)): 105.07
- Intensity (integrated fluorescence of DAF-FM DA, NO level) (WT in PBS + Ca + RL60, Time 307.26 (minutes)): 188.57
- Intensity (integrated fluorescence of DAF-FM DA, NO level) (WT in PBS + Ca + RL60, Time 319.42 (minutes)): 200.79
- Intensity (integrated fluorescence of DAF-FM DA, NO level) (WT in PBS + Ca + RL60, Time 429.53 (minutes)): 223.01
- Intensity (integrated fluorescence of DAF-FM DA, NO level) (WT in PBS + Ca + RL60, Time 463.82 (minutes)): 225.53
- Intensity (integrated fluorescence of DAF-FM DA, NO level) (WT in PBS + Ca + RL60, Time 768.4 (minutes)): 445.79
- Intensity (integrated fluorescence of DAF-FM DA, NO level) (WT in PBS + Ca + RL60, Time 799.9 (minutes)): 480.01
- DAF-FM DA NO profile (ionic calcium wells, over the entire 800 minutes): continued to increase
